Test results as given in patent publication US20260209202A1, “N-METHYL-4-(QUINOLIN-2-YL)PYRIDIN-2-AMINE COMPOUNDS” (Abbvie Inc., priority 2023, published 2026).
pKd: −log10 of the molar value.

Assays:
[1] = target: tau aggregates in globus pallidus and putamen of PSP brains (Homo sapiens, UniProt P10636); test: Homologous (self-) displacement in vitro autoradiography on FF PSP brain sections; assay type: binding; settings: 3 nM radioligand displaced by corresponding non-radiolabeled compound, mean of three PSP brains, read-out: sdKD (KD determined by means of self-displacement experiments)
Sequence of tau aggregates in globus pallidus and putamen of PSP brains (Homo sapiens, UniProt P10636) (P10636 with tags, fused parts or gaps): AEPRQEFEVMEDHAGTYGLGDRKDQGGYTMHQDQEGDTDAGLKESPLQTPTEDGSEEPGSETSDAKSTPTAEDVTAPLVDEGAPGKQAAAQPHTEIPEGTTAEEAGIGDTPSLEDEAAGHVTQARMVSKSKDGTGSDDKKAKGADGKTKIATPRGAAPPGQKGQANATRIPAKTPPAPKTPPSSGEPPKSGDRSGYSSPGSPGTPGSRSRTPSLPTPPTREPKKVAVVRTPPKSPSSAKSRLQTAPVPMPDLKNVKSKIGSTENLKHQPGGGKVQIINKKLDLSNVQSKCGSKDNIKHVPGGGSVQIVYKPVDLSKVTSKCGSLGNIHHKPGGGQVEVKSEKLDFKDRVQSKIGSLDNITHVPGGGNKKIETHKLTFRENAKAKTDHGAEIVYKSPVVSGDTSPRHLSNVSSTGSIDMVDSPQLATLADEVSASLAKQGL
Text: Brain Tissue. Flash-frozen (FF) tissue blocks, and, for some cases, the corresponding mirrored, formalin-fixed, paraffin-embedded (FFPE) tissue blocks from the globus pallidus and putamen of normal or Progressive Supranuclear Palsy (PSP) brains were purchased from Tissue Solutions Ltd (TS; Glasgow, UK). Both FF and FFPE tissue blocks were used to assess the distribution pattern of [3H] Compound (I) and [3H] Compound (II) binding to normal and PSP brain samples by means of in vitro autoradiography. Only FF tissue blocks were used to determine the affinity of [^3H] Compound (I) and [^3H] Compound (II) for PSP brain by means of in vitro autoradiography. […] The plates were read using a Phosphoimager Typhoon™ FLA-70001P (GE Healthcare, Chicago, IL USA). […] Quantitative analysis of the in vitro autoradiography results. Quantitative analysis was performed by computer assisted micro-densitometry (MCD; MCID basic, Interfocus, Devon, UK). […] Identification of the areas of interest was determined by reference to the Atlas of the Human Brain (Mai et al., 2015, Elsevier, ISBN:9780128028018). […]

[2] = PET imaging in cynomolgus macaques, baseline and homologous self-block; assay type: in vivo; settings: for off-target binding in brain: healthy cynomolgus macaques; for blood brain barrier crossing / brain uptake and clearance: intravenous radiotracer
Experimental: PET imaging procedures in cynomolgus macaques were performed under the guidelines of the Institutional Animal Care and Use Committee. Anesthesia was maintained using isoflurane gas maintained at 1.25-3.0% for the duration of the imaging procedures. Prior to PET imaging, a head computed tomography (CT) was acquired using a Neurologica CereTom® CT system (Neurologica, Danvers, MA, USA) which was used for localization of the animal in the PET system, and later for attenuation correction of the PET data.
The radiotracer was administered as a bolus injection (3 mL over 2 minutes), and data collected in dynamic list mode emission acquisition was initiated using a Siemens Concorde microPET® Focus™ 220 (Siemens USA, Washington DC, USA) for 120 minutes. Arterial blood samples were acquired throughout the PET acquisition to measure radioactivity in whole blood and plasma and to assess the % parent and metabolite(s) for generation of an input function for kinetic modeling analysis. The whole blood arterial samples were acquired, initially rapidly (every 30 seconds) and decreased in frequency towards the end of the PET acquisition to every 30 minutes. Arterial whole blood samples were counted in a well counter (PerkinElmer Wizard® 1470; PerkinElmer, Waltham, MA, USA) for radioactivity concentration. Samples were then centrifuged (3000 RCF for 5 minutes) to allow extraction of plasma which was subsequently counted for radioactivity concentration. To determine the proportion of unchanged radiotracer, selected plasma samples (1, 2, 3, 4, 7, 9, 15, 20, 40, 60, 90, and 120 minutes) were extracted with equal volumes of acetonitrile, then injected onto a Dionex/Thermo Ultimate 3000 radio-HPLC system (ThermoFisher, Waltham, MA, USA) consisting of a Phenomenex® Onyx™ C18 10×100 mm column (Torrance, CA, USA), an Eckert and Ziegler coincidence BGO radiodetector (model B-FC-4100, Eckert and Ziegler, Atlanta, GA, USA) and a mobile phase of (A) 10 mM ammonium acetate and (B) acetonitrile. The conditions for [^18F] Compound (I) are: 0-2.5 min, 95% A at 4 mL/min; 2.5-2.6 min, 95% A to 50% A at 4 mL/min to 3 mL/min; 2.6-10 min, 50% A at 3 mL/min; 10-10.1 min, 50% A to 95% A at 3 mL/min to 4 mL/min; 10.1-13 min, 95% A at 4 mL/min. Retention time for [^18F] Compound (I) was 8.4 min. The conditions for [^18F] Compound (II) are: 0-2.5 min, 95% A at 4 mL/min; 2.5-2.6 min, 95% A to 65% A at 4 mL/min to 3 mL/min; 2.6-10 min, 65% A at 3 mL/min; 10-10.1 min, 65% A to 95% A at 3 mL/min to 4 mL/min; 10.1-13 min, 95% A at 4 mL/min. Retention time for [^18F] Compound (II) was 9.3 min. Arterial sampling data was used to generate the input function for kinetic modeling. Potential off-target specific binding in the brain was evaluated for each lead radiotracer using a pre-dosing paradigm in which PET was performed after administration of a 1 mg/kg homologous dose of the non-radioactive tracer over a 15-minute infusion 20 minutes prior to radiotracer injection.
Upon the completion of PET image acquisition, anesthesia was terminated, primates were monitored until fully alert, then transported to their cages. In addition to PET imaging, each primate underwent separate MRI imaging (GE Discovery™ 3T MR750 MRI scanner and GE Signa™ HDxt 1.5T MRI scanner, GE Healthcare, Chicago, IL, USA) for acquisition of a structural T1w image for purposes of co-registration and transformation to a standard atlas space. The PET data analysis was performed, and images were reconstructed using Siemens MicroPET® Manager and AsiPro (Siemens) software. PET list mode data was binned into sinograms with time frames of 6×30 seconds, 3×1 minutes, 2×2 minutes, 22×5 minutes. Images were reconstructed using filtered back projection using a Hanning filter with a 0.5 cycles/pixel cutoff. Corrections for attenuation (using the acquired CT), scatter, and deadtime correction were applied. Furthermore, the dynamic images were decay-corrected to start of PET acquisition, which coincided with the radiotracer injection. […]

[3] = tested on: tau aggregates in globus pallidus and putamen of PSP brains; test: In vitro autoradiography of radioligand binding to sections of globus pallidus and putamen from PSP and normal brains; parameters: species or system human
Text: Brain Tissue. Flash-frozen (FF) tissue blocks, and, for some cases, the corresponding mirrored, formalin-fixed, paraffin-embedded (FFPE) tissue blocks from the globus pallidus and putamen of normal or Progressive Supranuclear Palsy (PSP) brains were purchased from Tissue Solutions Ltd (TS; Glasgow, UK). Both FF and FFPE tissue blocks were used to assess the distribution pattern of [3H] Compound (I) and [3H] Compound (II) binding to normal and PSP brain samples by means of in vitro autoradiography. Only FF tissue blocks were used to determine the affinity of [^3H] Compound (I) and [^3H] Compound (II) for PSP brain by means of in vitro autoradiography. […]
In vitro autoradiography. […] The plates were read using a Phosphoimager Typhoon™ FLA-70001P (GE Healthcare, Chicago, IL USA). […]
Quantitative analysis of the in vitro autoradiography results. Quantitative analysis was performed by computer assisted micro-densitometry (MCD; MCID basic, Interfocus, Devon, UK). […] Identification of the areas of interest was determined by reference to the Atlas of the Human Brain (Mai et al., 2015, Elsevier, ISBN:9780128028018). […]

Structure (SMILES)	pKd [1]	off-target binding in brain [2]	relative brain uptake among the tracers ([2]; initial brain SUV after injection)	blood brain barrier crossing [2]	brain uptake and clearance [2]	amount of radioligand bound to the tissue, PSP brains versus normal brains ([3]; 3 nM radioligand, grey matter of FF globus pallidus and putamen sections)	selectivity for tau aggregates in PSP affected brain tissue as compared to healthy brain tissue ([3]; globus pallidus and putamen)
CNc1cc(-c2ccc3cc(OCCOC)cc(F)c3n2)ccn1 [[^3H] Compound (I)] [4-[8-fluoro-6-(2-methoxyethoxy)quinolin-2-yl]-N—(^3H3)methylpyridin-2-amine]	7.91						
CNc1cc(-c2ccc3cc(OCCOC)cc([18F])c3n2)ccn1 [[^18F] Compound (I), 4-[8-(^18F)fluoro-6-(2-methoxyethoxy)quinolin-2-yl]-N-methylpyridin-2-amine]		did not show significant off-target binding	highest uptake	ability to cross the blood brain barrier	rapid uptake and rapid clearance		
[3H]C([3H])([3H])Nc1cc(-c2ccc3cc(OCCOC)cc(F)c3n2)ccn1 [[^3H] Compound (I)] [4-[8-fluoro-6-(2-methoxyethoxy)quinolin-2-yl]-N—(^3H3)methylpyridin-2-amine]						2.1 times	high degree of selectivity
CNc1cc(-c2ccc3cc(N4CC(O)(C[18F])C4)ccc3n2)ccn1 [[^18F] Compound (II), 3-[(^18F)fluoromethyl]-1-{2-[2-(methylamino)pyridin-4-yl]quinolin-6-yl}azetidin-3-ol]		did not show significant off-target binding		ability to cross the blood brain barrier	rapid uptake and rapid clearance		
